# How the values were obtained:
# [1] = test system: colorectal cancer; conditions: chronic aspirin use; cited from earlier work
# [2] = test system: sporadic colonic polyps; conditions: cited from earlier work; for regression of adenomatous polyps, small pilot study: sporadic colonic polyps
# [3] = test system: villous adenomas of the cecum; conditions: 30 mg weekly, for up to 20 months; cited from earlier work
# [4] = test system: MC-26 colorectal cancer cells; assay: Subcutaneous MC-26 colorectal cancer tumor growth in BALB/c mice; assay type: in vivo
# Experimental: (§1) A second control group included mice that were not injected with tumor cells and received no treatment.
# (§2) Skin from donor B6 black mice was transplanted to recipient white BALB/c mice. […] To determine the effects of these agents on secondary tumor development, BALB/c mice were also injected subcutaneously with MC-26 colorectal cancer cells and were treated for 22 days with the above regimens. A second control group included mice that were not injected with tumor cells and received no treatment.
# (§3) The inventors subcutaneously injected 2×10^4 MC-26 cells (mouse colorectal adenocarcinoma cell line) into the flanks of 6-8 week old BALB/c mice. Tumor volume was measured at regular intervals during a period of 22 days. […] Skin xenografts from donor black B6 mice were simultaneously transplanted to the backs of the mice.
# [5] = Body weight change of MC-26 tumor-bearing BALB/c mice, day 0 to day 22; assay type: in vivo; conditions: compared with mice not injected with tumor cells and untreated
# Experimental: as §1, §2
# [6] = test system: skin graft from donor B6 black mice; assay: Skin graft from donor B6 black mice transplanted to recipient BALB/c mice: graft rejection/survival; assay type: in vivo
# Experimental: as §2, §3
# [7] = test system: colonic polyps; conditions: daily dose of 300 mg, taken systemically; cited from earlier work
# [8] = given orally as a tablet; cited from earlier work
# [9] = test system: flat colorectal mucosa; conditions: after treatment with sulindac, FAP subjects; cited from earlier work
# [10] = test system: HT-29 colon adenocarcinoma cell line; conditions: following sulindac administration; cited from earlier work
smiles,measurement,setting,value
CC(=O)Oc1ccccc1C(=O)O [aspirin],reduction in the incidence of colorectal cancer,[1],50-70%
CN1C(C(=O)Nc2ccccn2)=C(O)c2ccccc2S1(=O)=O [piroxicam],"regression of adenomatous polyps, small pilot study",[2],no similar regression
same,regression of pre-malignant adenomas,[3],dramatic and sustained regression
CS(=O)(=O)c1ccc(C2=C(c3ccccc3)C(=O)OC2)cc1 [rofecoxib],tumor growth / tumor size (FIG. 1),"[4]; Example 1, treated for 22 days, rofecoxib chow equivalent to a human dose of 25 mg per day",significantly smaller
same,tumor growth / tumor size (FIG. 4),"[4]; Example 2, treated for 22 days, cyclosporine 20 mg/kg, rofecoxib chow equivalent to a human dose of 25 mg per day",significantly smaller
same,tumor volume (TV),"[4]; Example 3, 2×10^4 MC-26 cells s.c. in flank, 22 days, rofecoxib chow 0.01%, cyclosporine 20 mg/kg, skin graft transplanted simultaneously, control chow 920.81±511.10",394.75±273.37 mm^3
same,tumor volume / tumor growth compared with control chow,"[4]; Example 3, 22 days",markedly reduced
same,growth and body weight gain (FIG. 2),"[5]; Example 1, day 0 to day 22",continued to grow and gained weight similarly to the control group
same,growth and body weight gain,"[5]; Example 2, 22 days",continued to grow and gained weight similarly to the control group
same,skin graft rejection (FIG. 3),"[6]; Example 2, 22 days, cyclosporine 20 mg/kg, rofecoxib chow equivalent to a human dose of 25 mg per day",rejected the skin graft
same,skin graft survival at day 15,"[6]; Example 3, day 15, cyclosporine 20 mg/kg, rofecoxib chow 0.01%, control group 0%",0%
same,time by which the skin graft had failed,"[6]; Example 3, rofecoxib chow 0.01%",≤ 11 days
CC1=C(CC(=O)O)c2cc(F)ccc2/C1=C\c1ccc([S+](C)[O-])cc1 (stereo not drawn) [sulindac],number and size of colonic polyps,[7],significantly decreased
same,time to peak plasma concentration after dosing,[8],about two
same,"regression / progression of sporadic colorectal adenomas, multicenter study","[2]; 300 mg daily or 150 mg daily for one year, regardless of dose, nearly 100 subjects",induced regressions and prevented the progression
same,"regression of adenomatous polyps, small pilot study",[2],no similar regression
same,colonic mucosal apoptosis,[9],increased levels
same,apoptosis in HT-29 cells,[10],induction of apoptosis
